Patent publication US9695155B2, “Herbicidal substituted pyrimidinyloxy benzene compounds” (E. I. DU PONT DE NEMOURS AND COMPANY, priority 2013, dated 2017)

Key:
barnyardgrass [1] = assay: Test A postemergence; format: in vivo, Echinochloa crus-galli; details: 0 to 100 scale, 0 no effect, 100 complete control
Method in brief: (§1)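 Injury scores run from 0, no effect, to 100, complete control, judged by eye against untreated plants roughly 10 days after treatment. Chemicals carried a surfactant in a non-phytotoxic solvent and went onto loam–sand soil preemergence or onto one- to two-leaf seedlings postemergence.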

barnyardgrass [2] = assay: Test B flooded paddy test; format: in vivo, Echinochloa crus-galli; details: Flood, 250 g ai/ha; 0 to 100 scale where 0 is no effect and 100 is complete control
Method in brief: (§2)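 Compound added straight to paddy water, with pots kept flooded 3 cm above soil, on plants grown to the 2-leaf stage. Visual scoring 0-100 (100 = complete control) against untreated controls after 13 to 15 greenhouse days.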

Italian ryegrass [3] = assay: Test A postemergence; format: in vivo, Lolium multiflorum; details: 0 to 100 scale, 0 no effect, 100 complete control
Method in brief: as §1

kochia [4] = assay: Test A postemergence; format: in vivo, Kochia scoparia; details: 0 to 100 scale, 0 no effect, 100 complete control
Method in brief: as §1

kochia [5] = assay: Test A preemergence; format: in vivo, Kochia scoparia; details: for Plant response rating, Kochia: 31 g ai/ha, 0 to 100 scale where 0 is no effect and 100 is complete control, visual, approximately 10 days; for Kochia plant response rating (0 to 100 scale): 125 g ai/ha
Method in brief: as §1

giant foxtail [6] = assay: Test A postemergence; format: in vivo, Setaria faberii; details: 0 to 100 scale, 0 no effect, 100 complete control
Method in brief: as §1

giant foxtail [7] = assay: Test A preemergence; format: in vivo, Setaria faberii; details: for Plant response rating, Foxtail, Giant: 31 g ai/ha, 0 to 100 scale where 0 is no effect and 100 is complete control, visual, approximately 10 days; for Foxtail, Giant plant response rating (0 to 100 scale): 125 g ai/ha
Method in brief: as §1

galium = assay: Test A postemergence; format: in vivo, Galium aparine; details: 0 to 100 scale, 0 no effect, 100 complete control
Method in brief: as §1

pigweed [8] = assay: Test A preemergence; format: in vivo, Amaranthus retroflexus; details: for Plant response rating, Pigweed: 31 g ai/ha, 0 to 100 scale where 0 is no effect and 100 is complete control, visual, approximately 10 days; for Pigweed plant response rating (0 to 100 scale): 125 g ai/ha
Method in brief: as §1

sedge, umbrella = assay: Test B flooded paddy test; format: in vivo, Cyperus difformis; details: Flood, 250 g ai/ha; 0 to 100 scale where 0 is no effect and 100 is complete control
Method in brief: as §2

ragweed [9] = assay: Test A postemergence; format: in vivo, Ambrosia elatior; details: 0 to 100 scale, 0 no effect, 100 complete control
Method in brief: as §1

corn = assay: Test A postemergence; format: in vivo, Zea mays; details: 0 to 100 scale, 0 no effect, 100 complete control
Method in brief: as §1

barnyardgrass [10] = assay: Test A preemergence; format: in vivo, Echinochloa crus-galli; details: for Plant response rating, Barnyardgrass: 31 g ai/ha, 0 to 100 scale where 0 is no effect and 100 is complete control, visual, approximately 10 days; for Barnyardgrass plant response rating (0 to 100 scale, 0 is no effect, 100 is complete control): 125 g ai/ha
Method in brief: as §1

Heteranthera limosa = assay: Test B flooded paddy test; format: in vivo; details: Flood, 250 g ai/ha; 0 to 100 scale where 0 is no effect and 100 is complete control
Method in brief: as §2

pigweed [11] = assay: Test A postemergence; format: in vivo, Amaranthus retroflexus; details: 0 to 100 scale, 0 no effect, 100 complete control
Method in brief: as §1

wheat = assay: Test A postemergence; format: in vivo, Triticum aestivum; details: 0 to 100 scale, 0 no effect, 100 complete control
Method in brief: as §1

rice = assay: Test B flooded paddy test; format: in vivo, Oryza sativa; details: Flood, 250 g ai/ha; 0 to 100 scale where 0 is no effect and 100 is complete control
Method in brief: as §2

ragweed [12] = assay: Test A preemergence; format: in vivo, Ambrosia elatior; details: for Plant response rating, Ragweed: 31 g ai/ha, 0 to 100 scale where 0 is no effect and 100 is complete control, visual, approximately 10 days; for Ragweed plant response rating (0 to 100 scale): 125 g ai/ha
Method in brief: as §1

Italian ryegrass [13] = assay: Test A preemergence; format: in vivo, Lolium multiflorum; details: for Plant response rating, Ryegrass, Italian: 31 g ai/ha, 0 to 100 scale where 0 is no effect and 100 is complete control, visual, approximately 10 days; for Ryegrass, Italian plant response rating (0 to 100 scale): 125 g ai/ha
Method in brief: as §1

blackgrass = assay: Test A postemergence; format: in vivo, Alopecurus myosuroides; details: 0 to 100 scale, 0 no effect, 100 complete control
Method in brief: as §1

[14] = 1000 g ai/ha, 0 to 100 scale, 0 no effect, 100 complete control, approx. 10 days

SMILES	Plant response rating, Barnyardgrass (barnyardgrass [1]; 31 g ai/ha)	Plant response rating, Barnyardgrass (barnyardgrass [1]; 125 g ai/ha)	Plant response rating, Barnyardgrass (barnyardgrass [2])	Plant response rating, Ryegrass, Italian (Italian ryegrass [3]; 31 g ai/ha)	Plant response rating, Ryegrass, Italian (Italian ryegrass [3]; 125 g ai/ha)	Plant response rating, Kochia (kochia [4]; 31 g ai/ha)	Plant response rating, Kochia (kochia [4]; 125 g ai/ha)	Plant response rating, Kochia (kochia [5])	Kochia plant response rating (0 to 100 scale) (kochia [5])	Plant response rating, Foxtail, Giant (giant foxtail [6]; 31 g ai/ha)	Plant response rating, Foxtail, Giant (giant foxtail [6]; 125 g ai/ha)	Plant response rating, Foxtail, Giant (giant foxtail [7])	Foxtail, Giant plant response rating (0 to 100 scale) (giant foxtail [7])	Plant response rating, Galium (galium; 31 g ai/ha)	Plant response rating, Galium (galium; 125 g ai/ha)	Plant response rating, Pigweed (pigweed [8])	Pigweed plant response rating (0 to 100 scale) (pigweed [8])	Plant response rating, Sedge, Umbrella (sedge, umbrella)	Plant response rating, Ducksalad (Heteranthera limosa)	Plant response rating, Rice (rice)	other results
N#Cc1cnn(-c2c(CF)cccc2Oc2ncc(Cl)cn2)c1 [Compound 242]	0	60	20	0	30	30	80	30	100	0	50	100	100	10	30	90	100	75	70	0	Plant response rating, Ragweed (ragweed [9]; 31 g ai/ha): 20; Plant response rating, Ragweed (ragweed [9]; 125 g ai/ha): 50; Plant response rating, Corn (corn; 31 g ai/ha): 0; Plant response rating, Corn (corn; 125 g ai/ha): 60; Plant response rating, Barnyardgrass (barnyardgrass [10]): 20; Barnyardgrass plant response rating (0 to 100 scale, 0 is no effect, 100 is complete control) (barnyardgrass [10]): 70; Plant response rating, Pigweed (pigweed [11]; 31 g ai/ha): 30; Plant response rating, Pigweed (pigweed [11]; 125 g ai/ha): 80; Plant response rating, Wheat (wheat; 31 g ai/ha): 0; Plant response rating, Wheat (wheat; 125 g ai/ha): 60; Plant response rating, Ragweed (ragweed [12]): 50; Ragweed plant response rating (0 to 100 scale) (ragweed [12]): 80; Plant response rating, Ryegrass, Italian (Italian ryegrass [13]): 0; Ryegrass, Italian plant response rating (0 to 100 scale) (Italian ryegrass [13]): 0; Plant response rating, Blackgrass (blackgrass; 31 g ai/ha): 30; Plant response rating, Blackgrass (blackgrass; 125 g ai/ha): 90
COC(=O)c1cccc(Oc2ncc(Cl)cn2)c1-n1cc(C(F)(F)F)cn1 [Compound 248]	–	–	0	–	–	–	–	–	–	–	–	–	–	–	–	–	–	70	50	15	Plant response rating, Barnyardgrass (barnyardgrass [1]; 1000 g ai/ha): 70; Plant response rating, Ryegrass, Italian (Italian ryegrass [3]; 1000 g ai/ha): 50; Plant response rating, Kochia (kochia [4]; 1000 g ai/ha): 90; Kochia plant response rating (kochia [5]; [14]): 100; Plant response rating, Foxtail, Giant (giant foxtail [6]; 1000 g ai/ha): 100; Foxtail, Giant plant response rating (giant foxtail [7]; [14]): 100; Plant response rating, Galium (galium; 1000 g ai/ha): 100; Pigweed plant response rating (pigweed [8]; [14]): 100; Plant response rating, Ragweed (ragweed [9]; 1000 g ai/ha): 50; Plant response rating, Corn (corn; 1000 g ai/ha): 80; Barnyardgrass plant response rating (barnyardgrass [10]; [14]): 80; Plant response rating, Pigweed (pigweed [11]; 1000 g ai/ha): 100; Plant response rating, Wheat (wheat; 1000 g ai/ha): 20; Ragweed plant response rating (ragweed [12]; [14]): 40; Ryegrass, Italian plant response rating (Italian ryegrass [13]; [14]): 50; Plant response rating, Blackgrass (blackgrass; 1000 g ai/ha): 30
CC(C)Oc1cnn(-c2c(C#N)cccc2Oc2ncc(Br)cn2)c1 [Compound 254]	10	60	0	0	20	20	60	20	80	10	60	30	90	20	100	30	90	60	65	0	Plant response rating, Ragweed (ragweed [9]; 31 g ai/ha): 10; Plant response rating, Ragweed (ragweed [9]; 125 g ai/ha): 20; Plant response rating, Corn (corn; 31 g ai/ha): 10; Plant response rating, Corn (corn; 125 g ai/ha): 20; Plant response rating, Barnyardgrass (barnyardgrass [10]): 20; Barnyardgrass plant response rating (0 to 100 scale, 0 is no effect, 100 is complete control) (barnyardgrass [10]): 80; Plant response rating, Pigweed (pigweed [11]; 31 g ai/ha): 10; Plant response rating, Pigweed (pigweed [11]; 125 g ai/ha): 30; Plant response rating, Wheat (wheat; 31 g ai/ha): 0; Plant response rating, Wheat (wheat; 125 g ai/ha): 30; Plant response rating, Ragweed (ragweed [12]): 0; Ragweed plant response rating (0 to 100 scale) (ragweed [12]): 0; Plant response rating, Ryegrass, Italian (Italian ryegrass [13]): 0; Ryegrass, Italian plant response rating (0 to 100 scale) (Italian ryegrass [13]): 40; Plant response rating, Blackgrass (blackgrass; 31 g ai/ha): 0; Plant response rating, Blackgrass (blackgrass; 125 g ai/ha): 60
FC(F)c1cccc(Oc2ncc(Cl)cn2)c1-n1cncc1Br [Compound 259]	0	30	0	0	10	60	80	20	80	10	40	30	100	70	80	70	100	75	70	0	Plant response rating, Ragweed (ragweed [9]; 31 g ai/ha): 50; Plant response rating, Ragweed (ragweed [9]; 125 g ai/ha): 70; Plant response rating, Corn (corn; 31 g ai/ha): 0; Plant response rating, Corn (corn; 125 g ai/ha): 10; Plant response rating, Barnyardgrass (barnyardgrass [10]): 10; Barnyardgrass plant response rating (0 to 100 scale, 0 is no effect, 100 is complete control) (barnyardgrass [10]): 70; Plant response rating, Pigweed (pigweed [11]; 31 g ai/ha): 70; Plant response rating, Pigweed (pigweed [11]; 125 g ai/ha): 90; Plant response rating, Wheat (wheat; 31 g ai/ha): 0; Plant response rating, Wheat (wheat; 125 g ai/ha): 0; Plant response rating, Ragweed (ragweed [12]): 10; Ragweed plant response rating (0 to 100 scale) (ragweed [12]): 70; Plant response rating, Ryegrass, Italian (Italian ryegrass [13]): 0; Ryegrass, Italian plant response rating (0 to 100 scale) (Italian ryegrass [13]): 0; Plant response rating, Blackgrass (blackgrass; 31 g ai/ha): 20; Plant response rating, Blackgrass (blackgrass; 125 g ai/ha): 50
